What was measured:
Assay in all cases: Kinase profiling
Type in all cases: biochemical
[1] = target: T1, AuroraA (Homo sapiens, UniProt O14965)
T1 construct: purchased ProQinase (Freiburg, Germany)
T1 sequence (O14965 1-403): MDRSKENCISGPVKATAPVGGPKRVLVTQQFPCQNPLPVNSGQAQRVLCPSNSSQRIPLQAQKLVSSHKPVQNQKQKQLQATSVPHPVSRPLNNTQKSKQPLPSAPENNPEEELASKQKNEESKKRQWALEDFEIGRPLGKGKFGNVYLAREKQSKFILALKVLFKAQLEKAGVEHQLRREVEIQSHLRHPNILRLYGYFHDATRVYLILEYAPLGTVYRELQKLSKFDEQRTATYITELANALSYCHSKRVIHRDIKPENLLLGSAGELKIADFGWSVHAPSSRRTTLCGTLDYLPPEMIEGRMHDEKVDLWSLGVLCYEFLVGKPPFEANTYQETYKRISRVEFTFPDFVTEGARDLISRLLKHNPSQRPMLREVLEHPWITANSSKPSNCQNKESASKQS
Method: (§1) The analysis was performed by ProQinase (Freiburg, Germany).

[2] = target: T2, CAMK2B (Homo sapiens, UniProt Q13554)
T2 construct: purchased ProQinase (Freiburg, Germany)
T2 sequence (Q13554 whole entry): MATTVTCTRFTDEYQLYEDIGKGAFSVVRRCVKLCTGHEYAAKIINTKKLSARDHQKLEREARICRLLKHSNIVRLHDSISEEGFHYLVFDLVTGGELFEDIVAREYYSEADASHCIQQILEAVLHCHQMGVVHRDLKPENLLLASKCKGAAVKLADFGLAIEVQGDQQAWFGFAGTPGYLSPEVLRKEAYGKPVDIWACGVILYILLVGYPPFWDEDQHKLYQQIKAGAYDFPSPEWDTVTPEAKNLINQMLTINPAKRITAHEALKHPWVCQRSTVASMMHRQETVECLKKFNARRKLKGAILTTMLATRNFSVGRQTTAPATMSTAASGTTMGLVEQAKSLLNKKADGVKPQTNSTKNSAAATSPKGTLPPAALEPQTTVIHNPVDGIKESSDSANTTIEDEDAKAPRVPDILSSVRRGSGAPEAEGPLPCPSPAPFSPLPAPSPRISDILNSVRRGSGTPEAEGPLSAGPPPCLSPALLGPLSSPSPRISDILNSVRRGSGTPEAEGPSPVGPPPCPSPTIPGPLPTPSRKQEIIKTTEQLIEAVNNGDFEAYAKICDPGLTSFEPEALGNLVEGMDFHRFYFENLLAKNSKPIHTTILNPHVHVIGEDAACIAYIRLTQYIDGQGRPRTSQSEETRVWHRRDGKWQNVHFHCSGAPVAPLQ
Method: as §1

[3] = target: T3, CDC7/DBF4 (Homo sapiens, UniProt O00311)
T3 construct: purchased ProQinase (Freiburg, Germany)
Method: as §1

[4] = target: T4, CDK13/CycK (Homo sapiens, UniProt Q14004)
T4 construct: purchased ProQinase (Freiburg, Germany)
Method: as §1

[5] = target: T5, CDK6/CycD1 (Homo sapiens, UniProt Q00534)
T5 construct: purchased ProQinase (Freiburg, Germany)
T5 sequence (Q00534 whole entry): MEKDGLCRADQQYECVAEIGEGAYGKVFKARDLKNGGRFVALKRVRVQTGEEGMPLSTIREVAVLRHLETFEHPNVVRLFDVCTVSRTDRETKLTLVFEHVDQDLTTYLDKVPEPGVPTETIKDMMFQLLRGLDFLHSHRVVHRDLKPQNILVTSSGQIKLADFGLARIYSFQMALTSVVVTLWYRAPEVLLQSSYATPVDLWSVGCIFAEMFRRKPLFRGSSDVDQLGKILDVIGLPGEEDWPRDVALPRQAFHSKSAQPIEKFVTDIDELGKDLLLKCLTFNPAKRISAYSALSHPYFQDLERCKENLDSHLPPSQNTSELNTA
T5 sequence (P24385 whole entry partner): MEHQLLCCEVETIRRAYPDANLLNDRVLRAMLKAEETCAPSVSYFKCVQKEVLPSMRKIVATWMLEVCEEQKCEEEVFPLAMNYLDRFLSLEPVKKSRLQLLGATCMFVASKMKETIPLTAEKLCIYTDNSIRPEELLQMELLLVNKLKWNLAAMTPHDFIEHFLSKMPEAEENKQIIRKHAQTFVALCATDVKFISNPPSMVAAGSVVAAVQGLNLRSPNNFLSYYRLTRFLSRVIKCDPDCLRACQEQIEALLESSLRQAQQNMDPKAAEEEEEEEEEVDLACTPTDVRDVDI
Method: as §1

[6] = target: T6, CK1gamma1 (Homo sapiens, UniProt Q9HCP0)
T6 construct: purchased ProQinase (Freiburg, Germany)
Method: as §1

[7] = target: T7, DAPK3 (Homo sapiens, UniProt O43293)
T7 construct: purchased ProQinase (Freiburg, Germany)
Method: as §1

[8] = target: T8, FGFR3 (Homo sapiens, UniProt P22607)
T8 construct: purchased ProQinase (Freiburg, Germany)
Method: as §1

[9] = target: T9, FGFR4 (Homo sapiens, UniProt P22455)
T9 construct: purchased ProQinase (Freiburg, Germany)
T9 sequence (P22455 22-802): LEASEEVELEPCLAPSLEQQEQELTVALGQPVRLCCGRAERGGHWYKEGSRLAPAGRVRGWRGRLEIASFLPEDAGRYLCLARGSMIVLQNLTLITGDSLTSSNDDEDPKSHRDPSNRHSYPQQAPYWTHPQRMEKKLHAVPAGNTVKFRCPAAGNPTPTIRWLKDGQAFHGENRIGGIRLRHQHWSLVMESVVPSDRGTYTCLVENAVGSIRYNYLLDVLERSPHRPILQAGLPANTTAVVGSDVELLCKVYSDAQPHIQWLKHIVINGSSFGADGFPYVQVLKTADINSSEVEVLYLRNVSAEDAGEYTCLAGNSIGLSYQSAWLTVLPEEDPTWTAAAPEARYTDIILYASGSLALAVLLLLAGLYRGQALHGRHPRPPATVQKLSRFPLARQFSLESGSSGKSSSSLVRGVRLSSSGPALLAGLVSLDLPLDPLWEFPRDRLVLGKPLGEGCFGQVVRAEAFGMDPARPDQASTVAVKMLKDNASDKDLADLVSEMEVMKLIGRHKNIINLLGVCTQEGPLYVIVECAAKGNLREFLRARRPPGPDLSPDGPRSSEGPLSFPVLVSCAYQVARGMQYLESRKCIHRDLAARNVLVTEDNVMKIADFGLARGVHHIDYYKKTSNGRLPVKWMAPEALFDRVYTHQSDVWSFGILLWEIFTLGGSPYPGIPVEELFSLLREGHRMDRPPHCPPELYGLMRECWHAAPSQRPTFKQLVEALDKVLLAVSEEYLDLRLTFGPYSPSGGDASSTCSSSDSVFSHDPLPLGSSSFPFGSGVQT
Method: as §1

[10] = target: T10, FGR (Homo sapiens, UniProt P09769)
T10 construct: purchased ProQinase (Freiburg, Germany)
T10 sequence (P09769 whole entry): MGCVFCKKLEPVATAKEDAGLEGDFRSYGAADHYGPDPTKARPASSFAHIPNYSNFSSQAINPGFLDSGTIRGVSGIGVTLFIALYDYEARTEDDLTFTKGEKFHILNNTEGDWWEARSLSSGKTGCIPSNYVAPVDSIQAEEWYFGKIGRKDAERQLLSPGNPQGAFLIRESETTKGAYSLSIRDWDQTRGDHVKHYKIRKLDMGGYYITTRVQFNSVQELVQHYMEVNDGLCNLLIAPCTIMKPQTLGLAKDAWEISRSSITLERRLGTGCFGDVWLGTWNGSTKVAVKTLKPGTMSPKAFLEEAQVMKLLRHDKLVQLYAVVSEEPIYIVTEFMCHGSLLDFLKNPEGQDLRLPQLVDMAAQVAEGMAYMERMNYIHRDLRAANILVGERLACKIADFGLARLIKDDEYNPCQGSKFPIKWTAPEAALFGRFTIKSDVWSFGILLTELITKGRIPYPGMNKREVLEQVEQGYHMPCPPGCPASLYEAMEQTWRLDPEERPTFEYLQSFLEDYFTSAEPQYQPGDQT
Method: as §1

[11] = target: T11, HRI (Homo sapiens, UniProt Q9BQI3)
T11 construct: purchased ProQinase (Freiburg, Germany)
T11 sequence (Q9BQI3 whole entry): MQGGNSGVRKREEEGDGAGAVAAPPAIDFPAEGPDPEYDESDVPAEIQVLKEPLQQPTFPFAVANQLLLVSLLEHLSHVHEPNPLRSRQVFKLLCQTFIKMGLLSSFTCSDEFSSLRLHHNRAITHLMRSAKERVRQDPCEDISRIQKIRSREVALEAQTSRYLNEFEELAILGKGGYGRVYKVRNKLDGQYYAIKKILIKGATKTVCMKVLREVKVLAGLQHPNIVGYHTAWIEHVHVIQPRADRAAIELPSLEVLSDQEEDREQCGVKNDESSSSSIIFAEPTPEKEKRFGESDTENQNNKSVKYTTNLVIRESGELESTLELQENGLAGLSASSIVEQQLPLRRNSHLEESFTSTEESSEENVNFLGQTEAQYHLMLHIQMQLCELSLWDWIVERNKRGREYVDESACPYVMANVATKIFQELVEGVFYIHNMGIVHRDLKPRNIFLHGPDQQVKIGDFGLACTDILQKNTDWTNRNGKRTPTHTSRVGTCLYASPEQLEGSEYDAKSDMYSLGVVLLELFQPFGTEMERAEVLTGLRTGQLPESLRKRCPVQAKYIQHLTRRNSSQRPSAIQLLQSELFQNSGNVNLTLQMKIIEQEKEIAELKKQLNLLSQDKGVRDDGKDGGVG
Method: as §1

[12] = target: T12, MAPKAPK2 (Homo sapiens, UniProt P49137)
T12 construct: purchased ProQinase (Freiburg, Germany)
T12 sequence (P49137 whole entry): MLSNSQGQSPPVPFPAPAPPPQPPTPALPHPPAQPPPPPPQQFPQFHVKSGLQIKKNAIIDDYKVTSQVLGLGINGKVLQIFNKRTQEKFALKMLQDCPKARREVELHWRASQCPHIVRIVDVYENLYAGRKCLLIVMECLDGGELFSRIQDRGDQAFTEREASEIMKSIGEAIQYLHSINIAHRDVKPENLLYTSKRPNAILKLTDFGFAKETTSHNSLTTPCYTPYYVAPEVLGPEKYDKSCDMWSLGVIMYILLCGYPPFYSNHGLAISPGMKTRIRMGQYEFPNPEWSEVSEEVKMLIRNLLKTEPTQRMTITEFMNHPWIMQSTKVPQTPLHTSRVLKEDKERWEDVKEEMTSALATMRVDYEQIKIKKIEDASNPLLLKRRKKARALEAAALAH
Method: as §1

[13] = target: T13, PAK4 (Homo sapiens, UniProt O96013)
T13 construct: purchased ProQinase (Freiburg, Germany)
Method: as §1

[14] = target: T14, PHKG1 (Homo sapiens, UniProt Q16816)
T14 construct: purchased ProQinase (Freiburg, Germany)
T14 sequence (Q16816 whole entry): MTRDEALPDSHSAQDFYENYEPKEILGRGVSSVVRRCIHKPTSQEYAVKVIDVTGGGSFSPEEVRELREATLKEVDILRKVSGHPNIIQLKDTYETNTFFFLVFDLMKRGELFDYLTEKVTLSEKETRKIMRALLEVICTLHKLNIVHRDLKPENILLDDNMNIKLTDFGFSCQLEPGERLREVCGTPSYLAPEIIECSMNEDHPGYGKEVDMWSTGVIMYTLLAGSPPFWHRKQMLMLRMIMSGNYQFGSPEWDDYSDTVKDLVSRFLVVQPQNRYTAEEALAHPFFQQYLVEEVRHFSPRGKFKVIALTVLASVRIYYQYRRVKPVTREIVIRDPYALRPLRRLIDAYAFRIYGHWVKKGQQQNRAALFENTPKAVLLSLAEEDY
Method: as §1

[15] = target: T15, PRKX (Homo sapiens, UniProt P51817)
T15 construct: purchased ProQinase (Freiburg, Germany)
T15 sequence (P51817 1-358): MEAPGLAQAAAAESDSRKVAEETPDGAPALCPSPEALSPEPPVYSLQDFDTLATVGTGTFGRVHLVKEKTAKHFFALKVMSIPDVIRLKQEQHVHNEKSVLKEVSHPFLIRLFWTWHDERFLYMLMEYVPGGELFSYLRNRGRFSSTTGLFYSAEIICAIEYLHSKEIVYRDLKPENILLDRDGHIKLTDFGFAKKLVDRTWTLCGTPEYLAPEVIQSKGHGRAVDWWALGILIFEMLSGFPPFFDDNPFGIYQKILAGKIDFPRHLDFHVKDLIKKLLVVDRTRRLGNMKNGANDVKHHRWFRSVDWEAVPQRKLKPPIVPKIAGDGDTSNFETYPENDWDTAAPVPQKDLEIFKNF
Method: as §1

[16] = target: T16, TRKC (Homo sapiens, UniProt Q16288)
T16 construct: purchased ProQinase (Freiburg, Germany)
T16 sequence (Q16288 32-839): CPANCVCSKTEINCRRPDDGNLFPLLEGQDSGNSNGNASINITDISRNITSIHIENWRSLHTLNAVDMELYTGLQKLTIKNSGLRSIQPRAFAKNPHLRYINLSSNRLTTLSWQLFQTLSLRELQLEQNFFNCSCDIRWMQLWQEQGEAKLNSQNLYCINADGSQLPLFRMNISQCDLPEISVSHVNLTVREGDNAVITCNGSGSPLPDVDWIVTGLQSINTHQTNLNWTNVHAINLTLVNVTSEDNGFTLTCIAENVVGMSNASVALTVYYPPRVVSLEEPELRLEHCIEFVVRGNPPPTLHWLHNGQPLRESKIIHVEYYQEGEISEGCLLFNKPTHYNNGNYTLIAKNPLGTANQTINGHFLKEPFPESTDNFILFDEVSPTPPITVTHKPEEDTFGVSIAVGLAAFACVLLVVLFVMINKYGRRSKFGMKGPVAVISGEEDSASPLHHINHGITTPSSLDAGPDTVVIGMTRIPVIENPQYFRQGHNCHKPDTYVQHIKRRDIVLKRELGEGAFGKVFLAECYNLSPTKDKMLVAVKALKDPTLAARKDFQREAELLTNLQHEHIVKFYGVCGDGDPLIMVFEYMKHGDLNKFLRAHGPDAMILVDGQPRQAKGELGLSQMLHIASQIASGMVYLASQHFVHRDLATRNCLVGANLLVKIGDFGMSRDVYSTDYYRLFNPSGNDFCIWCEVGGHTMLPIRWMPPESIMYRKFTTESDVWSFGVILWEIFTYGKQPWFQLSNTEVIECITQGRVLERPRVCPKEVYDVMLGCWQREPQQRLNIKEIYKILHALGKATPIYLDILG
Method: as §1

[17] = target: T17, p38delta (Homo sapiens, UniProt O15264)
T17 construct: purchased ProQinase (Freiburg, Germany)
T17 sequence (O15264 1-365): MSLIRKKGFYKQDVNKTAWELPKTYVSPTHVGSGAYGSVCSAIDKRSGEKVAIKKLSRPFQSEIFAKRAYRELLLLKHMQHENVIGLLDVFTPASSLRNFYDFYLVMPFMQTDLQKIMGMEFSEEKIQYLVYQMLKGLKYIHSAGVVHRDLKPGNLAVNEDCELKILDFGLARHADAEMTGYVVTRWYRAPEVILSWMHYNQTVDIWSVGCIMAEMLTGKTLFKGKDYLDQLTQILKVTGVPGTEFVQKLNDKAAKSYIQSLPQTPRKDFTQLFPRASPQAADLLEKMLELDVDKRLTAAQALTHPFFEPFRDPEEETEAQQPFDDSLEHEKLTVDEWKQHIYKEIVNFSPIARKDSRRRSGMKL
Method: as §1

SMILES	Residual activity ([1]; 1.0E-05 M)	Residual activity ([1]; 1.0E-06 M)	Residual activity ([2]; 1.0E-05 M)	Residual activity ([2]; 1.0E-06 M)	Residual activity ([3]; 1.0E-05 M)	Residual activity ([3]; 1.0E-06 M)	Residual activity ([4]; 1.0E-05 M)	Residual activity ([4]; 1.0E-06 M)	Residual activity ([5]; 1.0E-05 M)	Residual activity ([5]; 1.0E-06 M)	Residual activity ([6]; 1.0E-05 M)	Residual activity ([6]; 1.0E-06 M)	Residual activity ([7]; 1.0E-05 M)	Residual activity ([7]; 1.0E-06 M)	Residual activity ([8]; 1.0E-05 M)	Residual activity ([8]; 1.0E-06 M)	Residual activity ([9]; 1.0E-05 M)	Residual activity ([9]; 1.0E-06 M)	Residual activity ([10]; 1.0E-05 M)	Residual activity ([10]; 1.0E-06 M)	also measured
O=C(Cc1ccccc1)Nc1ccc(F)c(Nc2ccc3c(c2)CCCCC3=O)c1 [Compound 100]	91 % of control	96 % of control	115 % of control	144 % of control	93 % of control	98 % of control	84 % of control	88 % of control	89 % of control	93 % of control	115 % of control	111 % of control	119 % of control	105 % of control	76 % of control	98 % of control	67 % of control	96 % of control	82 % of control	108 % of control	Residual activity ([11]; 1.0E-05 M): 123 % of control; Residual activity ([11]; 1.0E-06 M): 120 % of control; Residual activity ([12]; 1.0E-05 M): 77 % of control; Residual activity ([12]; 1.0E-06 M): 121 % of control; Residual activity ([13]; 1.0E-05 M): 92 % of control; Residual activity ([13]; 1.0E-06 M): 97 % of control; Residual activity ([14]; 1.0E-05 M): 75 % of control; Residual activity ([14]; 1.0E-06 M): 95 % of control; Residual activity ([15]; 1.0E-05 M): 88 % of control; Residual activity ([15]; 1.0E-06 M): 102 % of control; Residual activity ([16]; 1.0E-05 M): 89 % of control; Residual activity ([16]; 1.0E-06 M): 109 % of control; Residual activity ([17]; 1.0E-05 M): 85 % of control; Residual activity ([17]; 1.0E-06 M): 93 % of control
O=C(Nc1ccc(F)c(Nc2ccc3c(c2)CCCCC3=O)c1)c1cccc(F)c1 [Compound 109]	90 % of control	93 % of control	104 % of control	132 % of control	91 % of control	96 % of control	92 % of control	88 % of control	90 % of control	84 % of control	57 % of control	86 % of control	107 % of control	108 % of control	95 % of control	110 % of control	79 % of control	90 % of control	84 % of control	105 % of control	Residual activity ([11]; 1.0E-05 M): 129 % of control; Residual activity ([11]; 1.0E-06 M): 98 % of control; Residual activity ([12]; 1.0E-05 M): 78 % of control; Residual activity ([12]; 1.0E-06 M): 101 % of control; Residual activity ([13]; 1.0E-05 M): 82 % of control; Residual activity ([13]; 1.0E-06 M): 98 % of control; Residual activity ([14]; 1.0E-05 M): 86 % of control; Residual activity ([14]; 1.0E-06 M): 96 % of control; Residual activity ([15]; 1.0E-05 M): 85 % of control; Residual activity ([15]; 1.0E-06 M): 95 % of control; Residual activity ([16]; 1.0E-05 M): 97 % of control; Residual activity ([16]; 1.0E-06 M): 112 % of control; Residual activity ([17]; 1.0E-05 M): 98 % of control; Residual activity ([17]; 1.0E-06 M): 91 % of control

— paper PMC9030254, “Target Hopping from Protein Kinases to PXR: Identification of Small-Molecule Protein Kinase Inhibitors as Selective Modulators of Pregnane X Receptor from TüKIC Library” (Cells, 2022)
